Assay results taken from ChEMBL document CHEMBL5291721, “A preclinical secondary pharmacology resource illuminates target-adverse drug reaction associations of marketed drugs” (Nat Commun, 2023).

Tests used:
Androgen receptor [1] = target: T1, Androgen receptor (Rattus norvegicus, UniProt P15207); type: functional
T1 sequence (P15207 whole entry): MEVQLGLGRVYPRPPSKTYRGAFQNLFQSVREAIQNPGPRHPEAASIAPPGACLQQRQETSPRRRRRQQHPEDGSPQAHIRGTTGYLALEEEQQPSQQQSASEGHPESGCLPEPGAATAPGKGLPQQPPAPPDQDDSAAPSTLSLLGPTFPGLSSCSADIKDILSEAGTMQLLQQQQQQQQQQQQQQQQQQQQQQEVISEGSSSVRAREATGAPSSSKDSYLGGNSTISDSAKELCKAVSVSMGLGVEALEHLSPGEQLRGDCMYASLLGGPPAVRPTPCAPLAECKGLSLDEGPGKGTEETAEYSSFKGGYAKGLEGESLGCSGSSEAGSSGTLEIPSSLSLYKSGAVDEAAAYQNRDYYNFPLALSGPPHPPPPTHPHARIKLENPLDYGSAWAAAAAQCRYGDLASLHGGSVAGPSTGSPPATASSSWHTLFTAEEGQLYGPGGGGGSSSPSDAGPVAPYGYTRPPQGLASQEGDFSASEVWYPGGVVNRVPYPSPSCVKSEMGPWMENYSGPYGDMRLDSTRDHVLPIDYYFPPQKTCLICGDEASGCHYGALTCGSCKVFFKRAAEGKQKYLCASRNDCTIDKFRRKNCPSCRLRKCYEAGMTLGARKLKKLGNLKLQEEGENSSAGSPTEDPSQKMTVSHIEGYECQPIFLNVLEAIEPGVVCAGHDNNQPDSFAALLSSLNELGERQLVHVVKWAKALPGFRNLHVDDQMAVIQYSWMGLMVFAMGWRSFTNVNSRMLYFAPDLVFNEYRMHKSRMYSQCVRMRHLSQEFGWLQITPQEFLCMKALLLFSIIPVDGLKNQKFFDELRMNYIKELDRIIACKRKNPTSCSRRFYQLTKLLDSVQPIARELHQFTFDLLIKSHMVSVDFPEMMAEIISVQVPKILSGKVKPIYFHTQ

[2] = target: Gamma-aminobutyric acid receptor subunit alpha-1/alpha-2/beta-2/gamma-2 (Homo sapiens, UniProt P14867+P18507+P47869+P47870); type: functional, cell-based
Androgen receptor [3] = target: T1, Androgen receptor
Histamine H2 receptor = Histamine H2 receptor (Homo sapiens, UniProt P25021)
[4] = target: 5-hydroxytryptamine receptor 2B (Homo sapiens, UniProt P41595)
[5] = target: T2, 5-hydroxytryptamine receptor 1A (Homo sapiens, UniProt P08908)
T2 sequence (P08908 whole entry): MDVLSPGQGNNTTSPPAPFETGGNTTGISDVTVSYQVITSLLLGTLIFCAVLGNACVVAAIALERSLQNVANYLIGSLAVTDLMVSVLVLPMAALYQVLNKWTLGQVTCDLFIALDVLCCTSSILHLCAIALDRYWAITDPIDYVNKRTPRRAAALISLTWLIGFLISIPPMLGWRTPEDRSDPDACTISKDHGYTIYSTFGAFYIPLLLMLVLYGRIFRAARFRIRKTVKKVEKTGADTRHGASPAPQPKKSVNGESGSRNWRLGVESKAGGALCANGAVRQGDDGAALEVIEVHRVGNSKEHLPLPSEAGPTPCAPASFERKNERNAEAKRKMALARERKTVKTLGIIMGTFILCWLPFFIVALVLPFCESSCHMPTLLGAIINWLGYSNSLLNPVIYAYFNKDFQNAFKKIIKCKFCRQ

[6] = target: Voltage-dependent N-type calcium channel subunit alpha-1B (Rattus norvegicus, UniProt Q02294); type: functional
[7] = target: T3, Alpha-2A adrenergic receptor (Homo sapiens, UniProt P08913)
T3 sequence (P08913 whole entry): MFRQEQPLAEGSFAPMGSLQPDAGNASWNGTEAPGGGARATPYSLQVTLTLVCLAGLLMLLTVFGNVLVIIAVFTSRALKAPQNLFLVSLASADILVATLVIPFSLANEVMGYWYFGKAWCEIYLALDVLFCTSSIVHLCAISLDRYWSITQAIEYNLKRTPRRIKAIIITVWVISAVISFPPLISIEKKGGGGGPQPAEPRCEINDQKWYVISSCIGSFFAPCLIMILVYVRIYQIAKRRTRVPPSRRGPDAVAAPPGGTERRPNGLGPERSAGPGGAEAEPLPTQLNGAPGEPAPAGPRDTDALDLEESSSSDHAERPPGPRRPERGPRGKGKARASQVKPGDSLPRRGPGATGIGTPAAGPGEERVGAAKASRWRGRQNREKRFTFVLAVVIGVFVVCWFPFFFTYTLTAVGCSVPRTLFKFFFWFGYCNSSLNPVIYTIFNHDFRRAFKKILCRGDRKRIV

Progesterone receptor = target: T4, Progesterone receptor (Homo sapiens, UniProt P06401)
T4 sequence (P06401 whole entry): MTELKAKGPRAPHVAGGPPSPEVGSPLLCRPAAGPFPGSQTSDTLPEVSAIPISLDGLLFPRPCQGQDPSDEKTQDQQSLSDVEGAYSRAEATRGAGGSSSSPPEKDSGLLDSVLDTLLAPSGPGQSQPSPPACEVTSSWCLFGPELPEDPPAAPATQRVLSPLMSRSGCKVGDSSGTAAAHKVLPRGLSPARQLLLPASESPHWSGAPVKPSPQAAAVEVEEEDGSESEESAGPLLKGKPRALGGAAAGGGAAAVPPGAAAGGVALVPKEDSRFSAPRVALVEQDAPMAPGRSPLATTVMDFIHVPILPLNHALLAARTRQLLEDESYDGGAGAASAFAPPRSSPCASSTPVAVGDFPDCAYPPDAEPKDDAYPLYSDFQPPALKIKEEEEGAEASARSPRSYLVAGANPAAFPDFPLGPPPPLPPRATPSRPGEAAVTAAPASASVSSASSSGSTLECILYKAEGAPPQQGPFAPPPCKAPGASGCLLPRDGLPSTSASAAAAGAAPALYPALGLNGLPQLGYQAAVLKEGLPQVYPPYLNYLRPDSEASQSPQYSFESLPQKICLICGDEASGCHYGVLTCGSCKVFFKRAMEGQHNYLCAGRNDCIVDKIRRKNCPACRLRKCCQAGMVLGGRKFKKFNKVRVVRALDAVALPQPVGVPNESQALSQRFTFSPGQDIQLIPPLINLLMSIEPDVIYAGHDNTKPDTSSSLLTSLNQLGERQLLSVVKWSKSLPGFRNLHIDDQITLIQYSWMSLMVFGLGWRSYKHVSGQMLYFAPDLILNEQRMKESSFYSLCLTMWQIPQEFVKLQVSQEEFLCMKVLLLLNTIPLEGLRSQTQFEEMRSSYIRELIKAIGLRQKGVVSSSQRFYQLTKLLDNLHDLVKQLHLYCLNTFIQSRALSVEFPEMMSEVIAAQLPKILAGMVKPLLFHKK
Further: assay procedure not described here.

Gamma-aminobutyric acid receptor subunit alpha-1/alpha-2/beta-2/gamma-2, sequence (P14867 whole entry): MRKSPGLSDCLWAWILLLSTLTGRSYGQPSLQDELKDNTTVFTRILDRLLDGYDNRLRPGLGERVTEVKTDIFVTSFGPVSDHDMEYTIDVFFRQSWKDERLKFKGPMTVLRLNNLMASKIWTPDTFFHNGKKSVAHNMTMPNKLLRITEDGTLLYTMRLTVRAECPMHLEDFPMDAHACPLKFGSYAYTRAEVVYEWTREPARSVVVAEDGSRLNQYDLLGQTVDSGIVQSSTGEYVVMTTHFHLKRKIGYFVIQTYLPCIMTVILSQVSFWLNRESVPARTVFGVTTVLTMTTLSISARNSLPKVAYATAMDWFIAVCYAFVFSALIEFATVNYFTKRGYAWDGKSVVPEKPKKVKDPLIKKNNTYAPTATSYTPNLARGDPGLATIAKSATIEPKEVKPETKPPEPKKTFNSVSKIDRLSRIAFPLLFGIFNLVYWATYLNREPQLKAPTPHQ
Gamma-aminobutyric acid receptor subunit alpha-1/alpha-2/beta-2/gamma-2, sequence (P47870 whole entry): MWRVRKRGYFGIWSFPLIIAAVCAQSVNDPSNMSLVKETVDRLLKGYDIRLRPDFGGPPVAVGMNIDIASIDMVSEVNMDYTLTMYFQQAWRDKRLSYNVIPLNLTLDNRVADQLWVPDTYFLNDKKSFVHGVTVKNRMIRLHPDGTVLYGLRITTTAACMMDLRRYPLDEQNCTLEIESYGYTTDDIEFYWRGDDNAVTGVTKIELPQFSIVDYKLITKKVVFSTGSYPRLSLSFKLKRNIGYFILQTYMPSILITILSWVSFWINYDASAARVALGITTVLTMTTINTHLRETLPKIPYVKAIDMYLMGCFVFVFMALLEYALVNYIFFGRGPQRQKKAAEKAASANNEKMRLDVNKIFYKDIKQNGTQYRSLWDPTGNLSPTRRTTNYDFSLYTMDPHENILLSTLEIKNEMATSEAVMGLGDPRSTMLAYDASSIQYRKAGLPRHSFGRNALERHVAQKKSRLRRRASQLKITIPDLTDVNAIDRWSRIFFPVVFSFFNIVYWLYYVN
Gamma-aminobutyric acid receptor subunit alpha-1/alpha-2/beta-2/gamma-2, sequence (P18507 whole entry): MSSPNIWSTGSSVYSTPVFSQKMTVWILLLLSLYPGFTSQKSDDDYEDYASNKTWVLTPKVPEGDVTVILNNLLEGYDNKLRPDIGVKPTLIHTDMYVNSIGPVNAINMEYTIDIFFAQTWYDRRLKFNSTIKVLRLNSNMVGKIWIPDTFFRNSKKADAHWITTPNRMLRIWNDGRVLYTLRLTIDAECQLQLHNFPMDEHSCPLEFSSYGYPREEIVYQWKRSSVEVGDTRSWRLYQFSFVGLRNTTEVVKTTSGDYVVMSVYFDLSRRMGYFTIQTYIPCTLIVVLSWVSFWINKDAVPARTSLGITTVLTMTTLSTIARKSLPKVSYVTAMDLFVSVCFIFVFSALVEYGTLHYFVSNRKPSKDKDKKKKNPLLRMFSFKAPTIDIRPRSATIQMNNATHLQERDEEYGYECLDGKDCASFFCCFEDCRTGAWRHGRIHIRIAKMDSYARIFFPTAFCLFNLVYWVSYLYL
Gamma-aminobutyric acid receptor subunit alpha-1/alpha-2/beta-2/gamma-2, sequence (P47869 whole entry): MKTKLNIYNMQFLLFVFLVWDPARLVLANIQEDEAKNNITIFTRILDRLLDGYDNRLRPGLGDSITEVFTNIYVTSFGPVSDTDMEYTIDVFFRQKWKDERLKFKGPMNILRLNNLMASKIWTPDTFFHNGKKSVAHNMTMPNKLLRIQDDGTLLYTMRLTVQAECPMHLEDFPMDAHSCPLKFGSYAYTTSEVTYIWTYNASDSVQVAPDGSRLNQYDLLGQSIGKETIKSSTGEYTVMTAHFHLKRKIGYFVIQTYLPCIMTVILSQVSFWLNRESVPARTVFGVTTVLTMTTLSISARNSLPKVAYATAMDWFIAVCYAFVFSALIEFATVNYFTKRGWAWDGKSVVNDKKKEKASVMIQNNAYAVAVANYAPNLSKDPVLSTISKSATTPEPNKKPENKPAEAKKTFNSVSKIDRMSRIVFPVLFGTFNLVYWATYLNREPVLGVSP
Voltage-dependent N-type calcium channel subunit alpha-1B, sequence (Q02294 whole entry): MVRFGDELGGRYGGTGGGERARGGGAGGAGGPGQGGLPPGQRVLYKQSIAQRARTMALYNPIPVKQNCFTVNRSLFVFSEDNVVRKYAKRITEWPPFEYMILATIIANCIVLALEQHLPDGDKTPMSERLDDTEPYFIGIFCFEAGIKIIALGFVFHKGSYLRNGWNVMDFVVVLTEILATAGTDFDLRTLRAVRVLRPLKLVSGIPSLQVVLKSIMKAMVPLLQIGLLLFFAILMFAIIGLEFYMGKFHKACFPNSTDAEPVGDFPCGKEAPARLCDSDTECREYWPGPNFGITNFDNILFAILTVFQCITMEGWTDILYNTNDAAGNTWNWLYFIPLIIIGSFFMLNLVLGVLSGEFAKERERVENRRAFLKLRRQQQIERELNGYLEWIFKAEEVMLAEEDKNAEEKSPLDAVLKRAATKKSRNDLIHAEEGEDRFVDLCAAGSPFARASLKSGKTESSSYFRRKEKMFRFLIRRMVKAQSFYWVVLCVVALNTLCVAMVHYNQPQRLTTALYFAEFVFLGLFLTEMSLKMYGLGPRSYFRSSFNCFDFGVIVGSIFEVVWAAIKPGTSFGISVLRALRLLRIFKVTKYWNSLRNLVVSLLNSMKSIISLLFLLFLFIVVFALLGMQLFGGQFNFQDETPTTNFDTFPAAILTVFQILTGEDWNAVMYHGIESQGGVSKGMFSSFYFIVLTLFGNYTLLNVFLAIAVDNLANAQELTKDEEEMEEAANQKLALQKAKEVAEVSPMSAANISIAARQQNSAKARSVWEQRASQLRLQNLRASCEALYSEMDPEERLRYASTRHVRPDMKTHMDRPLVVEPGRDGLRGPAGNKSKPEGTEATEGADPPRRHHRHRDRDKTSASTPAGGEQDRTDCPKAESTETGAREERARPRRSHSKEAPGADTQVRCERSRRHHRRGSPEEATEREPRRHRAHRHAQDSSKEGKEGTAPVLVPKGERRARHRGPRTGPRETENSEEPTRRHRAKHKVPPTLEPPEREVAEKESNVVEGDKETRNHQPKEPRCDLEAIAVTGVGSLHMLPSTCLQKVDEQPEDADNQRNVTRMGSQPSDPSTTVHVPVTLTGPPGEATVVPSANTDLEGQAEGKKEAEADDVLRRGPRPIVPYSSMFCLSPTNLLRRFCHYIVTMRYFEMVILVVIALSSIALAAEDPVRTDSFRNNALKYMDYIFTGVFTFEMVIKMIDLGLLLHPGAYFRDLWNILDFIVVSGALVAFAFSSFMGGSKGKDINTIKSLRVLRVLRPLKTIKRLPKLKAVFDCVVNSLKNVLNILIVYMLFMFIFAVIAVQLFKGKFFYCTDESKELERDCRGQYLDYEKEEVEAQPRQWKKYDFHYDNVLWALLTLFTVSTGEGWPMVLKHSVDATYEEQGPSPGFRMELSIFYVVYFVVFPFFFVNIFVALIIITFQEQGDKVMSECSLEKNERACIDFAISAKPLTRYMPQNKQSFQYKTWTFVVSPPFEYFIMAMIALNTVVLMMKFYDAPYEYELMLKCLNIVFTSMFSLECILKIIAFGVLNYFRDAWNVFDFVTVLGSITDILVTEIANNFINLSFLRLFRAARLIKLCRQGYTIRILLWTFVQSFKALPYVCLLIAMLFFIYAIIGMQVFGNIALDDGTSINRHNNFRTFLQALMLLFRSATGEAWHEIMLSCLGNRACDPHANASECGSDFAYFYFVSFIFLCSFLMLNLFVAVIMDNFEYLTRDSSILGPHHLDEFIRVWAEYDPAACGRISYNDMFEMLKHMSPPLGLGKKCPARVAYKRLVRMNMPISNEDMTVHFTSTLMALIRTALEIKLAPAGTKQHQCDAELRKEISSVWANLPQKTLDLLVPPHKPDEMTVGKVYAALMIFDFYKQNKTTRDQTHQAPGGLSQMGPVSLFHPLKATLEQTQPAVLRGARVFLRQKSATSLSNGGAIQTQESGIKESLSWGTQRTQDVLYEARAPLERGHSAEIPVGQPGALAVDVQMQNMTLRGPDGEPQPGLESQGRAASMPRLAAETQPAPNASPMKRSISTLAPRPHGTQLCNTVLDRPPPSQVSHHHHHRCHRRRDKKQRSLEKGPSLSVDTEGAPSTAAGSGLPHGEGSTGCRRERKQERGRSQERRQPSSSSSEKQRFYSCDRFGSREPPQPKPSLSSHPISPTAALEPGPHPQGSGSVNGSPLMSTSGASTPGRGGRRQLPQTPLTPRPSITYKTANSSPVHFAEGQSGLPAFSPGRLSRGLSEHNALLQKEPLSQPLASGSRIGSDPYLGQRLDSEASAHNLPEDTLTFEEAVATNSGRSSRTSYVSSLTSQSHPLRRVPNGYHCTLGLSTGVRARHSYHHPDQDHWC
5-hydroxytryptamine receptor 2B, sequence (P41595 whole entry): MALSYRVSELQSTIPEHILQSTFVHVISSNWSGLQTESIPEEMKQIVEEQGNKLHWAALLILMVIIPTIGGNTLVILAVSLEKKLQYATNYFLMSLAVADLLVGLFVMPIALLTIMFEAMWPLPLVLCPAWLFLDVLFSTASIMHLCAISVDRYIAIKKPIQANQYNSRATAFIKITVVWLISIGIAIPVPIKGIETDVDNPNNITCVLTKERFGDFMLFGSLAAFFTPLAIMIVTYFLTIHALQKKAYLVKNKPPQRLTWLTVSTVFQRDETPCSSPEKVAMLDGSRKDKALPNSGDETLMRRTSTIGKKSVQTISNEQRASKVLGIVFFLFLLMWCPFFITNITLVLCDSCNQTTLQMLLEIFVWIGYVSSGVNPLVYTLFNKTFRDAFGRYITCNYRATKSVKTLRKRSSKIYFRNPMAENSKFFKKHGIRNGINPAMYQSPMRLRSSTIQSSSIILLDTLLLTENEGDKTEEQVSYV
Histamine H2 receptor, sequence (P25021 whole entry): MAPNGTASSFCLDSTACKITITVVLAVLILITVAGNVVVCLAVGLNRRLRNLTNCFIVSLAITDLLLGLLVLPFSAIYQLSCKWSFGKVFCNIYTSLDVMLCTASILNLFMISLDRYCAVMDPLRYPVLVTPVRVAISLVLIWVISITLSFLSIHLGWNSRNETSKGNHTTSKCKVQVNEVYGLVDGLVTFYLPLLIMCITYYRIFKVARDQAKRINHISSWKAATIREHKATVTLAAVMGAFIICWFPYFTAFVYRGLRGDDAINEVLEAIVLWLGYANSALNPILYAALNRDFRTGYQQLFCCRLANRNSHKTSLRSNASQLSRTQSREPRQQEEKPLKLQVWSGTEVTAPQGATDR

## Fc1ccc(C(c2ccccc2)(c2ccccc2F)n2ccnc2)cc1 (centres undefined) [FLUTRIMAZOLE]
Androgen receptor [1]
  AC50: > 30 µM

## COc1ccc2c3c1O[C@H]1[C@@H](O)CC[C@H]4[C@@H](C2)N(C)CC[C@@]341 [DIHYDROCODEINE]
[2]
  AC50: > 30 µM

## CC(C)(C)NCC(O)COc1cccc2c1CCC(=O)N2 (centres undefined) [CARTEOLOL]
Androgen receptor [3]
  AC50: > 10 µM

## C[C@@H]1O[C@@H](O[C@@H]2C=C3CC[C@@H]4[C@H](CC[C@]5(C)[C@@H](c6ccc(=O)oc6)CC[C@]45O)[C@@]3(C)CC2)[C@H](O)[C@H](O)[C@H]1O [PROSCILLARIDIN]
Androgen receptor [1]
  AC50: > 30 µM

## Clc1ccccc1C(c1ccccc1)(c1ccccc1)n1ccnc1 [CLOTRIMAZOLE]
Histamine H2 receptor
  AC50: 17.4 µM
[4]
  AC50: > 10 µM
[5]
  AC50: > 10 µM
[6]
  AC50: > 10 µM

## O=C1C(O)=C([C@H]2CC[C@H](c3ccc(Cl)cc3)CC2)C(=O)c2ccccc21 [ATOVAQUONE]
Androgen receptor [1]
  AC50: > 30 µM

## COc1cccc(C2(O)CCCCC2CN(C)C)c1 (centres undefined) [TRAMADOL]
Histamine H2 receptor
  AC50: > 10 µM
[4]
  AC50: > 10 µM
Androgen receptor [3]
  AC50: > 30 µM
[7]
  AC50: > 10 µM
Progesterone receptor
  AC50: > 30 µM
[6]
  AC50: > 10 µM

## NC(=O)OCC(COC(N)=O)c1ccccc1 [FELBAMATE]
Androgen receptor [3]
  AC50: > 10 µM

## CC/C(=C(\c1ccccc1)c1ccc(OCCN(C)C)cc1)c1ccccc1 [TAMOXIFEN]
Histamine H2 receptor
  AC50: 1.75 µM
[4]
  AC50: 0.896 µM
[5]
  AC50: > 10 µM
[7]
  AC50: > 10 µM
[6]
  AC50: > 10 µM

## Cc1c(OCC(F)(F)F)ccnc1C[S+]([O-])c1nc2ccccc2[nH]1 (centres undefined) [LANSOPRAZOLE]
Histamine H2 receptor
  AC50: 8.52 µM
[4]
  AC50: > 10 µM
[5]
  AC50: > 10 µM
[7]
  AC50: > 10 µM
Progesterone receptor
  AC50: > 30 µM
[6]
  AC50: > 10 µM

## CC(CC1c2ccccc2CCc2ccccc21)CN(C)C (centres undefined) [BUTRIPTYLINE]
[2]
  AC50: > 30 µM

## NC(=O)CN1CC(O)CC1=O (centres undefined) [OXIRACETAM]
Androgen receptor [1]
  AC50: > 30 µM
[2]
  AC50: > 30 µM

## Cc1nnc2n1-c1ccc(Cl)cc1C(c1ccccc1Cl)=NC2 [TRIAZOLAM]
[5]
  AC50: > 10 µM
Progesterone receptor
  AC50: > 30 µM

## COc1ccc(CCNCC(O)COc2cccc(C)c2)cc1OC (centres undefined) [BEVANTOLOL]
[5]
  AC50: 1.56 µM
Androgen receptor [3]
  AC50: > 10 µM
